pIC50: −log10 of the molar value. Active and inactive are the calls of the source. No cut-off for these calls is given here.
How the values were obtained:
[1] = Cytotoxicity against human HCT116-p53-null cells assessed as reduction in cell viability incubated for 72 hrs by MTS assay; assay type: functional, cell-based
A549 = experiment: Cytotoxicity against human A549 cells assessed as reduction in cell viability incubated for 72 hrs by MTS assay; assay type: functional, cell-based; conditions: A549, 72 h
HCT-116 [2] = experiment: Cytotoxicity against human HCT-116 cells assessed as reduction in cell viability incubated for 72 hrs by MTS assay; assay type: functional, cell-based; conditions: HCT-116, 72 h
[3] = Drug localization in human CCRF-CEM cells assessed as MT-CO2 signal at 10 uM incubated for 4 hrs by click reaction analysis; assay type: ADME, cell-based
[4] = Cytotoxicity against human K562-Tax cells assessed as reduction in cell viability incubated for 72 hrs by MTS assay; assay type: functional, cell-based
CCRF-CEM [5] = experiment: Cytotoxicity against human CCRF-CEM cells assessed as reduction in cell viability incubated for 72 hrs by MTS assay; assay type: functional, cell-based
[6] = Cytotoxicity against human BJ cells assessed as reduction in cell viability incubated for 72 hrs by MTS assay; assay type: toxicity, cell-based
K562 = experiment: Cytotoxicity against human K562 cells assessed as reduction in cell viability incubated for 72 hrs by MTS assay; assay type: functional, cell-based; conditions: K562, 72 h
[7] = Cytotoxicity against human MRC5 cells assessed as reduction in cell viability incubated for 72 hrs by MTS assay; assay type: toxicity, cell-based
CEM-DNR = experiment: Cytotoxicity against human CEM-DNR cells assessed as reduction in cell viability incubated for 72 hrs by MTS assay; assay type: functional, cell-based
U2OS = experiment: Cytotoxicity against human U2OS cells assessed as reduction in cell viability incubated for 72 hrs by MTS assay; assay type: functional, cell-based
CCRF-CEM [8] = experiment: Induction of apoptosis in human CCRF-CEM cells assessed as viable cells at 5 times IC50 incubated for 24 hrs by Annexin V and propidium iodide staining based flow cytometry analysis […]; assay type: functional
CCRF-CEM [9] = experiment: Induction of apoptosis in human CCRF-CEM cells assessed as late apoptotic cells at 1 time IC50 incubated for 24 hrs by Annexin V and propidium iodide staining based flow cytometry analysis (reference value: […]); assay type: functional
CCRF-CEM [10] = experiment: Induction of apoptosis in human CCRF-CEM cells assessed as late apoptotic cells at 5 times IC50 incubated for 24 hrs by Annexin V and propidium iodide staining based flow cytometry analysis […]; assay type: functional
CCRF-CEM [11] = experiment: Induction of apoptosis in human CCRF-CEM cells assessed as necrotic cells at 1 time IC50 incubated for 24 hrs by Annexin V and propidium iodide staining based flow cytometry analysis (reference value: 0.0%); assay type: functional
CCRF-CEM [12] = experiment: Induction of apoptosis in human CCRF-CEM cells assessed as viable cells at 1 time IC50 incubated for 24 hrs by Annexin V and propidium iodide staining based flow cytometry analysis […]; assay type: functional
CCRF-CEM [13] = experiment: Induction of mitochondrial changes in human CCRF-CEM cells at 10 uM incubated for 4 hrs by electron microscopic analysis; assay type: functional, cell-based
HCT-116 [14] = experiment: Antitumor activity in human HCT-116 cells cultured as spheroids assessed as inhibition of cell growth at 10 uM incubated for 3 days; assay type: functional; parameters: scale not given: the % may be the effect or the level left; conditions: time 3 day
CCRF-CEM [15] = experiment: Induction of mitochondrial damage in human CCRF-CEM cells at >= 10 uM incubated for 4 hrs by light microscopic analysis; assay type: functional, cell-based
HeLa = experiment: Antitumor activity in human HeLa cells cultured as spheroids assessed as inhibition of spheroid opening at 1 uM incubated for 3 days; assay type: functional, cell-based; conditions: time 3.0 day
CCRF-CEM [16] = experiment: Induction of apoptosis in human CCRF-CEM cells assessed as early apoptotic cells at 5 times IC50 incubated for 24 hrs by Annexin V and propidium iodide staining based flow cytometry analysis […]; assay type: functional
CCRF-CEM [17] = experiment: Induction of apoptosis in human CCRF-CEM cells assessed as necrotic cells at 5 times IC50 incubated for 24 hrs by Annexin V and propidium iodide staining based flow cytometry analysis […]; assay type: functional
CCRF-CEM [18] = experiment: Induction of apoptosis in human CCRF-CEM cells assessed as early apoptotic cells at 1 time IC50 incubated for 24 hrs by Annexin V and propidium iodide staining based flow cytometry analysis (reference value: […]); assay type: functional
CCRF-CEM [19] = experiment: Induction of apoptosis in human CCRF-CEM cells assessed as decrease in c-Myc expression at 1 to 5 times IC50 incubated for 24 hrs by Western blot analysis; assay type: functional, cell-based
CCRF-CEM [20] = experiment: Induction of apoptosis in human CCRF-CEM cells assessed as PARP cleavage at 1 to 5 times IC50 incubated for 24 hrs by Western blot analysis; assay type: functional, cell-based
CCRF-CEM [21] = experiment: Induction of apoptosis in human CCRF-CEM cells assessed as accumulation of Bax protein expression at 1 to 5 times IC50 incubated for 24 hrs by Western blot analysis; assay type: functional, cell-based
CCRF-CEM [22] = experiment: Induction of apoptosis in human CCRF-CEM cells assessed as accumulation of Bid protein expression at 1 to 5 times IC50 incubated for 24 hrs by Western blot analysis; assay type: functional, cell-based
CCRF-CEM [23] = experiment: Induction of apoptosis in human CCRF-CEM cells assessed as increase in Noxa expression at 1 to 5 times IC50 incubated for 24 hrs by Western blot analysis; assay type: functional, cell-based
[24] = Stability in human plasma assessed as compound remaining at 2 uM measured at 120 mins by RF-MS analysis; assay type: ADME, cell-free; conditions: read-out: Stability
[25] = Chemical stability in PBS buffer at pH 7.4 assessed as compound remaining measured at 120 mins by RF-MS analysis; assay type: physicochemical; conditions: read-out: Stability
[26] = Apparent permeability of the compound in MDCK-MDR1 cells assessed as drug recovery at 10 uM incubated for 1 hr by RF-MS analysis; assay type: ADME, cell-based, Canis lupus familiaris; conditions: dog, read-out: Drug recovery
[27] = Stability in human liver microsomes assessed as compound remaining at 2 uM measured at 60 mins in presence of NADPH by RF-MS analysis; assay type: ADME, Microsome; conditions: read-out: Stability
[28] = Efflux ratio of apparent permeability across basolateral to apical side over apical to basolateral side in MDCK-MDR1 cells; assay type: ADME, cell-based, Canis lupus familiaris; conditions: dog
[29] = Chemical stability in PBS buffer at pH 7.4 assessed as compound remaining measured at 30 mins by RF-MS analysis; assay type: physicochemical; conditions: read-out: Stability
[30] = Apparent permeability of the compound in MDCK-MDR1 cells at 10 uM incubated for 1 hr by RF-MS analysis; assay type: ADME, cell-based, Canis lupus familiaris; conditions: dog
[31] = Stability in human plasma assessed as compound remaining at 2 uM measured at 15 mins by RF-MS analysis; assay type: ADME, cell-free; conditions: read-out: Stability
[32] = Chemical stability in PBS buffer at pH 7.4 assessed as compound remaining measured at 15 mins by RF-MS analysis; assay type: physicochemical; conditions: read-out: Stability
[33] = Stability in human liver microsomes assessed as compound remaining at 2 uM measured at 15 mins in presence of NADPH by RF-MS analysis; assay type: ADME, Microsome; conditions: read-out: Stability
[34] = Stability in human plasma assessed as compound remaining at 2 uM measured at 30 mins by RF-MS analysis; assay type: ADME, cell-free; conditions: read-out: Stability
[35] = Plasma protein binding in human at 10 uM by rapid equilibrium dialysis based RF-MS analysis; assay type: ADME, cell-free; conditions: read-out: PB (converted)
[36] = Stability in human liver microsomes assessed as compound remaining at 2 uM measured at 30 mins in presence of NADPH by RF-MS analysis; assay type: ADME, Microsome; conditions: read-out: Stability
[37] = Chemical stability in PBS buffer at pH 7.4 assessed as compound remaining measured at 60 mins by RF-MS analysis; assay type: physicochemical; conditions: read-out: Stability
[38] = Stability in human plasma assessed as compound remaining at 2 uM measured at 60 mins by RF-MS analysis; assay type: ADME, cell-free; conditions: read-out: Stability

Row | Compound | pIC50 [1] | pIC50 (A549) | pIC50 (HCT-116 [2]) | pIC50 [4] | pIC50 (CCRF-CEM [5]) | IC50 at 72 h [6] [nM] | pIC50 (K562) | IC50 at 72 h [7] [nM] | pIC50 (CEM-DNR) | pIC50 (U2OS) | Activity (CCRF-CEM [8]) [%] | Activity (CCRF-CEM [9]) [%] | Activity (CCRF-CEM [10]) [%] | Activity (CCRF-CEM [11]) [%] | Activity (CCRF-CEM [12]) [%] | Activity (HCT-116 [14]) [%] | Activity (HeLa) | Activity (CCRF-CEM [16]) [%] | Activity (CCRF-CEM [17]) [%] | Activity (CCRF-CEM [18]) [%] | other results
1 | C#CCOC(=O)[C@]12CC[C@@H](C(=C)C=O)[C@@H]1[C@H]1CC[C@@H]3[C@@]4(C)Cc5nccnc5C(C)(C)[C@@H]4CC[C@@]3(C)[C@]1(C)CC2 | 5.20 | 5.77 | 5.15 | 5.85 | 6.37 | 7200 | 5.80 | 6600 | 5.77 | 5.85 | – | – | – | – | – | – | – | – | – | – | Drug uptake [3]: Active
2 | C=C(C)[C@@H]1CC[C@]2(C(=O)O)CC[C@]3(C)[C@H](CC[C@@H]4[C@@]5(C)Cc6nccnc6C(C)(C)[C@@H]5CC[C@]43C)[C@@H]12 | – | – | – | – | – | – | – | – | – | – | 92 | 2.2 | 2.6 | 3.7 | 92.3 | 100 | Active | 0.8 | 4.5 | 1.7 | Activity (CCRF-CEM [13]): Active; Activity (CCRF-CEM [15]): inactive
3 | C#CCOC(=O)[C@]12CC[C@@H](C(=C)C)[C@@H]1[C@H]1CC[C@@H]3[C@@]4(C)Cc5nccnc5C(C)(C)[C@@H]4CC[C@@]3(C)[C@]1(C)CC2 | < 4.30 | < 4.30 | < 4.30 | < 4.30 | 4.35 | > 50000 | < 4.30 | > 50000 | 4.30 | < 4.30 | – | – | – | – | – | – | – | – | – | – | Drug uptake [3]: Not Active
4 | C=C(C=O)[C@@H]1CC[C@]2(C(=O)O)CC[C@]3(C)[C@H](CC[C@@H]4[C@@]5(C)Cc6nccnc6C(C)(C)[C@@H]5CC[C@]43C)[C@@H]12 | – | – | – | – | – | – | – | – | – | – | 2.7 | 3.6 | 42.8 | 5.8 | 85.1 | 100 | Active | 54 | 0.5 | 5.5 | Activity (CCRF-CEM [19]): Active; Activity (CCRF-CEM [20]): Active; Activity (CCRF-CEM [15]): inactive; Activity (CCRF-CEM [21]): Active; Activity (CCRF-CEM [22]): Active; Activity (CCRF-CEM [23]): Active
5 | C=C(C=O)[C@@H]1CC[C@]2(C(=O)OCc3cn([C@H]4O[C@H](COC(C)=O)[C@@H](OC(C)=O)[C@H](OC(C)=O)[C@H]4OC(C)=O)nn3)CC[C@]3(C)[C@H](CC[C@@H]4[C@@]5(C)Cc6nccnc6C(C)(C)[C@@H]5CC[C@]43C)[C@@H]12 (stereo in doubt) | 5.77 | 5.74 | 5.82 | 5.57 | 6.12 | 2300 | 5.92 | 1800 | 5.82 | 5.80 | 5.3 | 23.9 | 37.7 | 4.1 | 18.1 | 100 | Active | 56 | 1 | 53.8 | Activity (CCRF-CEM [19]): Active; remaining at 2 h, 2 µM [24]: 88.5%; remaining at 2 h [25]: 85.2%; recovery at 1 h, 10 µM [26]: 77.6%; Activity (CCRF-CEM [20]): Active; remaining at 1 h, 2 µM [27]: 58.9%; efflux ratio [28]: 4.49; remaining at 0.5 h [29]: 91.1%; Papp at 1 h, 10 µM [30]: 0.12 ×10⁻⁶ cm/s; remaining at 0.25 h, 2 µM [31]: 104%; Activity (CCRF-CEM [21]): Active; Activity (CCRF-CEM [22]): Active; remaining at 0.25 h [32]: 99.9%; remaining at 0.25 h, 2 µM [33]: 96.8%; remaining at 0.5 h, 2 µM [34]: 97.2%; fraction unbound at 10 µM [35]: 0.0017; remaining at 0.5 h, 2 µM [36]: 95.7%; remaining at 1 h [37]: 87.8%; remaining at 1 h, 2 µM [38]: 88.7%; Activity (CCRF-CEM [23]): Active
